From PubChem BioAssay (NCI)
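Five compound concentrations were applied to cells in 96-well plates for 48 hours; endpoints were derived by simple linear interpolation of the resulting dose-response curve. GI50 marks 50% less growth. TGI is the concentration that stops growth completely.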

How the values were obtained:
Test in all cases: NCI tumour cell line growth inhibition, 48 h
MCF7 breast = tested on: MCF7 breast
SNB-75 CNS = tested on: SNB-75 CNS
NCI-H460 lung = tested on: NCI-H460 lung
OVCAR-4 ovarian = tested on: OVCAR-4 ovarian
OVCAR-3 ovarian = tested on: OVCAR-3 ovarian
SF-268 CNS = tested on: SF-268 CNS
RXF 393 renal = tested on: RXF 393 renal
HCC-2998 colon = tested on: HCC-2998 colon
786-0 renal = tested on: 786-0 renal
UACC-62 melanoma = tested on: UACC-62 melanoma
U251 CNS = tested on: U251 CNS
SK-OV-3 ovarian = tested on: SK-OV-3 ovarian
SF-539 CNS = tested on: SF-539 CNS
HCT-116 colon = tested on: HCT-116 colon
HL-60(TB) leukemia = tested on: HL-60(TB) leukemia
ACHN renal = tested on: ACHN renal
OVCAR-5 ovarian = tested on: OVCAR-5 ovarian
SK-MEL-5 melanoma = tested on: SK-MEL-5 melanoma
HT29 colon = tested on: HT29 colon
BT-549 breast = tested on: BT-549 breast
PC-3 prostate = tested on: PC-3 prostate
MALME-3M melanoma = tested on: MALME-3M melanoma
IGROV1 ovarian = tested on: IGROV1 ovarian
OVCAR-8 ovarian = tested on: OVCAR-8 ovarian
NCI-H226 lung = tested on: NCI-H226 lung
A498 renal = tested on: A498 renal
SW-620 colon = tested on: SW-620 colon
SF-295 CNS = tested on: SF-295 CNS
RPMI-8226 leukemia = tested on: RPMI-8226 leukemia
HCT-15 colon = tested on: HCT-15 colon
CAKI-1 renal = tested on: CAKI-1 renal
NCI-H522 lung = tested on: NCI-H522 lung
SN12C renal = tested on: SN12C renal
A549 NSCLC = tested on: A549 NSCLC
HS 578T breast = tested on: HS 578T breast
MDA-MB-435 = tested on: MDA-MB-435
KM12 colon = tested on: KM12 colon
SNB-19 CNS = tested on: SNB-19 CNS
LOX IMVI melanoma = tested on: LOX IMVI melanoma
EKVX NSCLC = tested on: EKVX NSCLC
SK-MEL-28 melanoma = tested on: SK-MEL-28 melanoma
T-47D breast = tested on: T-47D breast
TK-10 renal = tested on: TK-10 renal
UACC-257 melanoma = tested on: UACC-257 melanoma
DU-145 prostate = tested on: DU-145 prostate
SK-MEL-2 melanoma = tested on: SK-MEL-2 melanoma
COLO 205 colon = tested on: COLO 205 colon
UO-31 renal = tested on: UO-31 renal
NCI-H23 lung = tested on: NCI-H23 lung
MDA-MB-231 breast = tested on: MDA-MB-231 breast
HOP-92 NSCLC = tested on: HOP-92 NSCLC
HOP-62 NSCLC = tested on: HOP-62 NSCLC

## CCOC(=O)c1c(NC(=O)c2ccc(C(F)(F)F)cc2)sc2c3c(ccc12)OCN(C)C3
MCF7 breast
  GI50: 1620 nM
  TGI: 3080 nM
SNB-75 CNS
  GI50: 1490 nM
  TGI: 3340 nM
NCI-H460 lung
  GI50: 1890 nM
  TGI: 3550 nM
OVCAR-4 ovarian
  GI50: 1760 nM
  TGI: 3460 nM
OVCAR-3 ovarian
  GI50: 1790 nM
  TGI: 3330 nM
SF-268 CNS
  GI50: 1830 nM
  TGI: 3660 nM
RXF 393 renal
  GI50: 1560 nM
  TGI: 2970 nM
HCC-2998 colon
  GI50: 1670 nM
  TGI: 3150 nM
786-0 renal
  GI50: 2220 nM
  TGI: 4920 nM
UACC-62 melanoma
  GI50: 1720 nM
  TGI: 3280 nM
U251 CNS
  GI50: 1710 nM
  TGI: 3340 nM
SK-OV-3 ovarian
  GI50: 1950 nM
  TGI: 3770 nM
SF-539 CNS
  GI50: 1750 nM
  TGI: 3300 nM
HCT-116 colon
  GI50: 1740 nM
  TGI: 3340 nM
HL-60(TB) leukemia
  GI50: 1690 nM
  TGI: 4740 nM
ACHN renal
  GI50: 1800 nM
  TGI: 3240 nM
OVCAR-5 ovarian
  GI50: 1800 nM
  TGI: 3400 nM
SK-MEL-5 melanoma
  GI50: 1810 nM
  TGI: 3450 nM
HT29 colon
  GI50: 1750 nM
  TGI: 3340 nM
BT-549 breast
  GI50: > 100000 nM
  TGI: > 100000 nM
PC-3 prostate
  GI50: 1530 nM
  TGI: 3150 nM
MALME-3M melanoma
  GI50: 1830 nM
  TGI: 3510 nM
IGROV1 ovarian
  GI50: 1810 nM
  TGI: 3520 nM
OVCAR-8 ovarian
  GI50: 1860 nM
  TGI: 3760 nM
NCI-H226 lung
  GI50: 1790 nM
  TGI: 3600 nM
A498 renal
  GI50: 1670 nM
  TGI: 3210 nM
SW-620 colon
  GI50: 1780 nM
  TGI: 3420 nM
SF-295 CNS
  GI50: 1790 nM
  TGI: 3320 nM
RPMI-8226 leukemia
  GI50: 1330 nM
  TGI: 3860 nM
HCT-15 colon
  GI50: 1740 nM
  TGI: 3280 nM
CAKI-1 renal
  GI50: 1670 nM
  TGI: 3200 nM
NCI-H522 lung
  GI50: 1720 nM
  TGI: 3350 nM
SN12C renal
  GI50: 1790 nM
  TGI: 3430 nM
A549 NSCLC
  GI50: 1790 nM
  TGI: 3610 nM
HS 578T breast
  GI50: 1840 nM
  TGI: 3970 nM
MDA-MB-435
  GI50: 1650 nM
  TGI: 3160 nM
KM12 colon
  GI50: 2010 nM
  TGI: 3770 nM
SNB-19 CNS
  GI50: 1780 nM
  TGI: 3520 nM
LOX IMVI melanoma
  GI50: 1650 nM
  TGI: 3210 nM
EKVX NSCLC
  GI50: 1690 nM
  TGI: 3360 nM
SK-MEL-28 melanoma
  GI50: 1800 nM
  TGI: 3280 nM
T-47D breast
  GI50: 1840 nM
  TGI: 3960 nM
TK-10 renal
  GI50: 1680 nM
  TGI: 3130 nM
UACC-257 melanoma
  GI50: 1620 nM
  TGI: 3270 nM
DU-145 prostate
  GI50: 1810 nM
  TGI: 3410 nM
SK-MEL-2 melanoma
  GI50: 1800 nM
  TGI: 3440 nM
COLO 205 colon
  GI50: 1780 nM
  TGI: 3500 nM
UO-31 renal
  GI50: 1550 nM
  TGI: 2950 nM
NCI-H23 lung
  GI50: 1810 nM
  TGI: 3500 nM
MDA-MB-231 breast
  GI50: 1860 nM
  TGI: 3700 nM
HOP-92 NSCLC
  GI50: 1140 nM
  TGI: 2680 nM
HOP-62 NSCLC
  GI50: 2000 nM
  TGI: 4320 nM
